According to patent publication US20230310428A1, “EGFR INHIBITOR AND PREPARATION METHOD AND USE THEREOF” (HONGYUN BIOTECH CO., LTD., priority 2020, published 2023):
Like-named read-outs stand apart in the source and are kept apart here.

Columns and labels:
Assay in all cases: Growth inhibitory activity of compounds on BaF3 cell lines stably transfected with kinase (MTS, 48 h)
Type in all cases: cell-based
[1] = biological target: T1, various mutants of kinase EGFR (BaF3 cell lines stably transfected with kinase) (Homo sapiens, UniProt P00533)
T1 construct: other: BaF3 cells stably transfected with EGFR Δ19Del; MTS, 48 h; other: BaF3 cell line stably transfected with EGFR Δ19Del
T1 sequence (P00533 with tags, fused parts or gaps DEL746-750): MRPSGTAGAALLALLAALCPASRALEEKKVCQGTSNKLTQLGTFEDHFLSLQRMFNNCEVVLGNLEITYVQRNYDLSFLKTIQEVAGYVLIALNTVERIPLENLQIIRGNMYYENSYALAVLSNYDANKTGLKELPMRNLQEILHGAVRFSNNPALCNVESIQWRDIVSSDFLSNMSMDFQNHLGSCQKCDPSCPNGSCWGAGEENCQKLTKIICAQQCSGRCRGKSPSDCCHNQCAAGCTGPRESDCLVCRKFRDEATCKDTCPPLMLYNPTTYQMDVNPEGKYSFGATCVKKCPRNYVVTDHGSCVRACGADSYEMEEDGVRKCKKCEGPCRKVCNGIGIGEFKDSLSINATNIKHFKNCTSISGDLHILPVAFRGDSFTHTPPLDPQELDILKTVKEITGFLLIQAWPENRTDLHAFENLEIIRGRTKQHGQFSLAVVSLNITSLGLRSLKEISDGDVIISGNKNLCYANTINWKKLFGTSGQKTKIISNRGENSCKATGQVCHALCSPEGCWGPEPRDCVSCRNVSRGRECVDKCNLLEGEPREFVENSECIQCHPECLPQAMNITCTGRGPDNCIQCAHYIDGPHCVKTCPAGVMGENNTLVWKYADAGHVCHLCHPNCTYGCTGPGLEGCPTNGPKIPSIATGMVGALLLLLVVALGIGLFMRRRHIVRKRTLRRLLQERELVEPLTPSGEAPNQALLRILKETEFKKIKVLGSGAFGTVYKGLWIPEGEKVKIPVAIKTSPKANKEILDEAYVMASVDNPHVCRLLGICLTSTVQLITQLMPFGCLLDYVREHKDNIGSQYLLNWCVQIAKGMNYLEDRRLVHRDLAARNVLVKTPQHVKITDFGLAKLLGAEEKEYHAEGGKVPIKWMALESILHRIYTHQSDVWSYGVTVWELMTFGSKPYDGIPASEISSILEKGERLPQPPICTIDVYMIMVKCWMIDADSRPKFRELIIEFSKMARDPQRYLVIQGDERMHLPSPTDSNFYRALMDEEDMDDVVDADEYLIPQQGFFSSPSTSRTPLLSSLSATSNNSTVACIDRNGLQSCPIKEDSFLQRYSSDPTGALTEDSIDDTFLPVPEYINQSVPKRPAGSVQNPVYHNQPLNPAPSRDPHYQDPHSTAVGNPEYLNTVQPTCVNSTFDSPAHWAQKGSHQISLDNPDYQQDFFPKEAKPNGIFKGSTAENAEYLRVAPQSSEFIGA
Outline: (§1)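 First, cells were seeded and treated with an eight-point threefold dilution series starting at 10 µM (0.1% DMSO). After 48 h at 37 °C, MTS reagent was added for 1-4 h before absorbance at 490 nm. Inhibition rates gave the IC50.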

[2] = biological target: T2, various mutants of kinase EGFR (BaF3 cell lines stably transfected with kinase) (Homo sapiens, UniProt P00533, C797S/L858R/T790M)
T2 construct: expressed in transfected cells; host or cells: BaF3
Outline: as §1

[3] = biological target: T3, various mutants of kinase EGFR (BaF3 cell lines stably transfected with kinase) (Homo sapiens, UniProt P00533, L858R)
T3 construct: expressed in transfected cells; host or cells: BaF3
Outline: as §1

[4] = biological target: T4, various mutants of kinase EGFR (BaF3 cell lines stably transfected with kinase) (Homo sapiens, UniProt P00533, L858R/T790M)
T4 construct: expressed in transfected cells; host or cells: BaF3
T4 sequence (P00533 25-1210 T790M/L858R): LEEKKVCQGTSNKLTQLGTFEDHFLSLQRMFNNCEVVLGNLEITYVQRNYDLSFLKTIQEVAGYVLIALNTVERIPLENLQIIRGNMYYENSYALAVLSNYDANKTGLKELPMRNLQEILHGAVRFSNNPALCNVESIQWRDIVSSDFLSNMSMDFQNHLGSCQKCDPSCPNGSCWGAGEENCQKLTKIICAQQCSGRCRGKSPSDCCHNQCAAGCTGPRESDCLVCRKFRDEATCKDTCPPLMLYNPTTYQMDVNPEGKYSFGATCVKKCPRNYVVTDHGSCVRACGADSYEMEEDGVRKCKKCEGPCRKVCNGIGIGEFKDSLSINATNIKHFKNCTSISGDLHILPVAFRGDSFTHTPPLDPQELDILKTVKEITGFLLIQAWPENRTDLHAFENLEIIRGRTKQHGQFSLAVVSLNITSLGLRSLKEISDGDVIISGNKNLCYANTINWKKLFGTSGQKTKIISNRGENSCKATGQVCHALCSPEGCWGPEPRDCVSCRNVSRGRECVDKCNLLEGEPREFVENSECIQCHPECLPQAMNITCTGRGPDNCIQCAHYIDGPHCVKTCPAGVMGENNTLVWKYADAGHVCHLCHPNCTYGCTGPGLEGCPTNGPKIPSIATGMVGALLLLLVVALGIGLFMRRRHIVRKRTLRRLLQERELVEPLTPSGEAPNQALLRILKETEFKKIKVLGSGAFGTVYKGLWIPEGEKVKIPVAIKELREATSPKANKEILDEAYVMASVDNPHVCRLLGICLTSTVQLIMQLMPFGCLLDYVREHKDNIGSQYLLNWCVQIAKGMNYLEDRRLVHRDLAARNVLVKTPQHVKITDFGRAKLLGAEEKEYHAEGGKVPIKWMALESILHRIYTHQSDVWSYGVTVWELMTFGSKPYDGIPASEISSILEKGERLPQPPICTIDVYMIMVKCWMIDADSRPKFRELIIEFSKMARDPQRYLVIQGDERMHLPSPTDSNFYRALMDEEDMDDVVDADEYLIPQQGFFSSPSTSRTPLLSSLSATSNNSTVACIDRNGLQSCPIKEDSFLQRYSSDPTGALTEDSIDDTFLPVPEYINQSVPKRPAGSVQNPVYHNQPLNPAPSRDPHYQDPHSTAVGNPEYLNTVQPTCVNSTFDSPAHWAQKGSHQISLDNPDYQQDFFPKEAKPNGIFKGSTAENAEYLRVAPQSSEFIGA
Outline: as §1

[5] = biological target: T5, various mutants of kinase EGFR (BaF3 cell lines stably transfected with kinase) (Homo sapiens, UniProt P00533, T790M/C797S, form not given)
T5 construct: other: BaF3 cells stably transfected with EGFR Δ19Del/T790M/C797S; MTS, 48; other: BaF3 cell line stably transfected with EGFR Δ19Del/T790M/C7
T5 sequence (P00533 with tags, fused parts or gaps DEL746-750/T790M/C797S, form open): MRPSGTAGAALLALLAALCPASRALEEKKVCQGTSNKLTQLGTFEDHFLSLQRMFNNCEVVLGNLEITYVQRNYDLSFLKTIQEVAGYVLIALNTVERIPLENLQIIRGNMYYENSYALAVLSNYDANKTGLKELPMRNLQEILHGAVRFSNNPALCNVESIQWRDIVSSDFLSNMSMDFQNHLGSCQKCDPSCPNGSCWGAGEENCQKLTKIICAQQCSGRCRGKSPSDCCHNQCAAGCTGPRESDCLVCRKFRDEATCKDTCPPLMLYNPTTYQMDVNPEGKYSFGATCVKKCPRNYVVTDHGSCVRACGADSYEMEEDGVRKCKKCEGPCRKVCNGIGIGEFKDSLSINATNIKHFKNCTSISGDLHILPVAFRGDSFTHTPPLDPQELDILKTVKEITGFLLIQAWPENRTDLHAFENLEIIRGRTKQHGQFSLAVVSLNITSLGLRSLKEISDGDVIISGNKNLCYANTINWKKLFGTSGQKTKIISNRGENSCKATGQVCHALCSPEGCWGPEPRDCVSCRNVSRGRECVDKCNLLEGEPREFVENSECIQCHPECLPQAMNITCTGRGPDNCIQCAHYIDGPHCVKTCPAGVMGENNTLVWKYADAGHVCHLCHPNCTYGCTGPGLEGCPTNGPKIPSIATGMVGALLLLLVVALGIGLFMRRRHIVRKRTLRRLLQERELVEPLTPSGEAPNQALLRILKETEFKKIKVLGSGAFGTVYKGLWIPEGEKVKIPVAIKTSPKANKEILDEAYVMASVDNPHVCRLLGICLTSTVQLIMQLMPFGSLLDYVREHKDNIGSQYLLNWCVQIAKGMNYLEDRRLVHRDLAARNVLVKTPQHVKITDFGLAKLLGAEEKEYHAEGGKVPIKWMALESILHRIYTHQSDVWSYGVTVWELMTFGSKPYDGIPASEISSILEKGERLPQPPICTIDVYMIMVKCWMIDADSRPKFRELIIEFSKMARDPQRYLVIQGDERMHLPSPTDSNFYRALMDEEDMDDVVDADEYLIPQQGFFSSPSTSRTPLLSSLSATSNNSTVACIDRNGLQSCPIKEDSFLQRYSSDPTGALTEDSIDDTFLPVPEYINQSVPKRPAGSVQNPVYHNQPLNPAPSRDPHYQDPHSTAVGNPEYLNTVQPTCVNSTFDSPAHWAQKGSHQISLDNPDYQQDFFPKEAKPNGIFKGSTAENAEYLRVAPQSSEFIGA
Outline: as §1

[6] = biological target: T6, various mutants of kinase EGFR (BaF3 cell lines stably transfected with kinase) (Homo sapiens, UniProt P00533, T790M, form not given)
T6 construct: other: BaF3 cells stably transfected with EGFR Δ19Del/T790M; MTS, 48 h; other: BaF3 cell line stably transfected with EGFR Δ19Del/T790M; MTS, 48
T6 sequence (P00533 with tags, fused parts or gaps DEL746-750/T790M, form open): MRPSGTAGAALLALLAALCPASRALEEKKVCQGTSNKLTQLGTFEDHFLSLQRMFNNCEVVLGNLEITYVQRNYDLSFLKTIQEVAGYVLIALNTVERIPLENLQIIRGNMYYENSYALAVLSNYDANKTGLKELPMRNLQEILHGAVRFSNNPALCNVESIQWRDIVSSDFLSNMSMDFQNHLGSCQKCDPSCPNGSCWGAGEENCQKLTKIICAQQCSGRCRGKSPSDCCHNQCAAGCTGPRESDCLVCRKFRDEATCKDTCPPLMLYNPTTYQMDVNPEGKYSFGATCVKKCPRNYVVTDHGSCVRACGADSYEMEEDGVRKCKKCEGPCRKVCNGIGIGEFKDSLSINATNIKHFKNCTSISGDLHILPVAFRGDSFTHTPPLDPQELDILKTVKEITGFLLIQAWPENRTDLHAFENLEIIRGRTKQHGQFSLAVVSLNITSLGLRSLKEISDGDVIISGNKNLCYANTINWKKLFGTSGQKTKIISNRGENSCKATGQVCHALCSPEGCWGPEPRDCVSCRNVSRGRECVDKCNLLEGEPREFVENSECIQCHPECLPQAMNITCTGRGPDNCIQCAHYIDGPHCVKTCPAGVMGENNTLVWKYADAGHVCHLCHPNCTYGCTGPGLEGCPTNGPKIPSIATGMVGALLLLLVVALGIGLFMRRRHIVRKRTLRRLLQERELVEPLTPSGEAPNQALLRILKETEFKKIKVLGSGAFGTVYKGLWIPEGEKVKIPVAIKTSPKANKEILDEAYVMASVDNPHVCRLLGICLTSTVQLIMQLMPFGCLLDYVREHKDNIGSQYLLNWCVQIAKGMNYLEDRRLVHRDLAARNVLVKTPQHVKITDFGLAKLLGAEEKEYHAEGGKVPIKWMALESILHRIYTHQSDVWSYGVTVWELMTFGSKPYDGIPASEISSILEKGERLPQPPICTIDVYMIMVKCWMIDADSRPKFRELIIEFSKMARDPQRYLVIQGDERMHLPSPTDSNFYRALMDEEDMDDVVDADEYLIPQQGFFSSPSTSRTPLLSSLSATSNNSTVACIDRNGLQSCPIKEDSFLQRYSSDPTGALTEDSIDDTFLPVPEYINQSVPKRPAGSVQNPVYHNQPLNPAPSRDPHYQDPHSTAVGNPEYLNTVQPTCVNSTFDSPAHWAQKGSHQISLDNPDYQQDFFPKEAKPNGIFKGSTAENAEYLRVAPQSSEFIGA
Outline: as §1

[7] = BaF3 cell line stably transfected with EGFR Δ19Del, read-out: Δ19Del growth inhibitory activity IC50
[8] = BaF3 cell line stably transfected with EGFR L858R/T790M/C797S, read-out: L858R/T790M/ C797S growth inhibitory activity IC50
[9] = BaF3 cell line stably transfected with EGFR L858R, read-out: L858R growth inhibitory activity IC50
[10] = BaF3 cell line stably transfected with EGFR L858R/T790M, read-out: L858R/ T790M growth inhibitory activity IC50
[11] = BaF3 cell line stably transfected with EGFR Δ19Del/T790M/C797S, read-out: Δ19Del/T790M/ C797S growth inhibitory activity IC50
[12] = BaF3 cell line stably transfected with EGFR Δ19Del/T790M, read-out: Δ19Del/ T790M growth inhibitory activity IC50
[13] = BaF3 cells stably transfected with EGFR Δ19Del, read-out: IC50, growth inhibition, Δ19Del
[14] = BaF3 cells stably transfected with EGFR L858R/T790M/C797S, read-out: IC50, growth inhibition, L858R/T790M/C797S
[15] = BaF3 cells stably transfected with EGFR L858R, read-out: IC50, growth inhibition, L858R
[16] = BaF3 cells stably transfected with EGFR L858R/T790M, read-out: IC50, growth inhibition, L858R/T790M
[17] = BaF3 cells stably transfected with EGFR Δ19Del/T790M/C797S, read-out: IC50, growth inhibition, Δ19Del/T790M/C797S
[18] = BaF3 cells stably transfected with EGFR Δ19Del/T790M, read-out: IC50, growth inhibition, Δ19Del/T790M

Structure (SMILES) | IC50 [1, 7] [nM] | IC50 [2, 8] [nM] | IC50 [3, 9] [nM] | IC50 [4, 10] [nM] | IC50 [5, 11] [nM] | IC50 [6, 12] [nM] | IC50 [1, 13] [nM] | IC50 [2, 14] [nM] | IC50 [3, 15] [nM] | IC50 [4, 16] [nM] | IC50 [5, 17] [nM] | IC50 [6, 18] [nM]
COc1ccc(N2CCC(O)CC2)cc1Nc1ncc(C)c(Nc2ccc3nccnc3c2N(C)S(C)(=O)=O)n1 [Compound I-362] | 50 to 500 | ≤ 50 | ≤ 50 | 50 to 500 | ≤ 50 | 50 to 500 |  |  |  |  |  | 
COc1cc(N2CCC(N3CCN(C)CC3)CC2)c(C(C)C)cc1Nc1ncc(C2CC2)c(Nc2ccc3nccnc3c2N(C)S(C)(=O)=O)n1 [Compound I-291] |  |  |  |  |  |  | 50 to 500 | 500 to 2500 | 50 to 500 | 50 to 500 | 50 to 500 | 50 to 500
COc1cc(N2CCC(N3CCN(C)CC3)CC2)c(Cc2ccccc2)cc1Nc1nc(Nc2ccc3nccnc3c2N(C)S(C)(=O)=O)c2occc2n1 [II-1-44] | 500 to 2500 | 500 to 2500 | 500 to 2500 | 500 to 2500 | 500 to 2500 | 50 to 500 |  |  |  |  |  | 
CCc1cc(Nc2ncc(Cl)c(Nc3ccc4nccnc4c3N(C)S(=O)(=O)C3CC3)n2)c(OC)cc1N1CCC(N(C)C)C1 (stereo not drawn) [Compound I-123] |  |  |  |  |  |  | 50 to 500 | 50 to 500 | 50 to 500 | ≤ 50 | ≤ 50 | 50 to 500
CN1CCN(C2CCN(c3c(F)cc(Nc4ncc(Br)c(Nc5ccc6nccnc6c5NS(C)(=O)=O)n4)cc3F)CC2)CC1 [Compound I-360] | 50 to 500 | 50 to 500 | ≤ 50 | ≤ 50 | 50 to 500 | 50 to 500 |  |  |  |  |  | 
CCc1cc(Nc2nc(Nc3ccc4nccnc4c3N(C)S(C)(=O)=O)c3cc[nH]c3n2)c(OC)cc1N1CCC(N(C)C)C1 (stereo not drawn) [II-2-17] | 500 to 2500 | 50 to 500 | 500 to 2500 | 50 to 500 | ≤ 50 | 50 to 500 |  |  |  |  |  | 
CCc1cc(Nc2nc(Nc3ccc4nccnc4c3N(C)S(C)(=O)=O)c3sccc3n2)c(OC)cc1N1CCC(N(C)C)CC1 [II-1-16] | 500 to 2500 | 50 to 500 | 50 to 500 | 50 to 500 | ≤ 50 | 50 to 500 |  |  |  |  |  | 
CCc1cc(Nc2nc(Nc3ccc4nccnc4c3N(C)S(C)(=O)=O)c3sccc3n2)c(OC)cc1N1CCC(N2CCN(C)CC2)CC1 [II-1-3] | 50 to 500 | ≤ 50 | 50 to 500 | 50 to 500 | ≤ 50 | 50 to 500 |  |  |  |  |  | 
CCc1cc(Nc2ncc(Br)c(Nc3ccc4nccnc4c3N(CC)S(C)(=O)=O)n2)c(OC)nc1N1CCC(N2CCN(C)CC2)CC1 [Compound I-212] |  |  |  |  |  |  | 50 to 500 | ≤ 50 | 50 to 500 | ≤ 50 | ≤ 50 | ≤ 50
CCc1cc(Nc2ncc(Cl)c(Nc3ccc4nccnc4c3N(C3CC3)S(C)(=O)=O)n2)c(OC)nc1N1CCC(N2CCN(C)CC2)CC1 [Compound I-241] |  |  |  |  |  |  | ≤ 50 | 50 to 500 | ≤ 50 | ≤ 50 | ≤ 50 | ≤ 50
CCc1cc(Nc2ncc(Br)c(Nc3ccc4nccnc4c3N(C)S(=O)(=O)CC)n2)c(OC)cc1N1CCC(N2CCN(C)CC2)CC1 [Compound I-100] |  |  |  |  |  |  | ≤ 50 | ≤ 50 | ≤ 50 | ≤ 50 | ≤ 50 | ≤ 50
COc1cc(N2CCC(N3CCN(C)CC3)CC2)ccc1Nc1ncc(Br)c(Nc2ccc3nccnc3c2N(C)S(C)(=O)=O)n1 [Compound I-1] |  |  |  |  |  |  | ≤ 50 | ≤ 50 | ≤ 50 | ≤ 50 | ≤ 50 | ≤ 50
CCc1cnc(Nc2cc(F)c(N3CCC(N4CCN(C)CC4)CC3)c(F)c2)nc1Nc1ccc2nccnc2c1N(C)S(C)(=O)=O [Compound I-349] | 50 to 500 | ≤ 50 | ≤ 50 | ≤ 50 | ≤ 50 | ≤ 50 |  |  |  |  |  | 
CCc1cc(Nc2ncc(OC)c(Nc3ccc4nccnc4c3N(C)S(C)(=O)=O)n2)c(OC)cc1N1CCN(C)CC1 [Compound I-283] |  |  |  |  |  |  | ≤ 50 | ≤ 50 | ≤ 50 | ≤ 50 | ≤ 50 | ≤ 50

Next, values leading:

IC50 [1, 7] [nM] | IC50 [2, 8] [nM] | IC50 [3, 9] [nM] | IC50 [4, 10] [nM] | IC50 [5, 11] [nM] | IC50 [6, 12] [nM] | IC50 [1, 13] [nM] | IC50 [2, 14] [nM] | IC50 [3, 15] [nM] | IC50 [4, 16] [nM] | IC50 [5, 17] [nM] | IC50 [6, 18] [nM] | Structure (SMILES)
50 to 500 | ≤ 50 | 50 to 500 | 50 to 500 | ≤ 50 | 50 to 500 |  |  |  |  |  |  | COc1ccc(N2CCC(O)CC2)cc1Nc1nc(Nc2ccc3nccnc3c2N(C)S(C)(=O)=O)c2cc[nH]c2n1 [II-2-23]
 |  |  |  |  |  | ≤ 50 | ≤ 50 | ≤ 50 | ≤ 50 | ≤ 50 | ≤ 50 | CCc1cc(Nc2ncc(Cl)c(Nc3ccc4nccnc4c3N(C)S(=O)(=O)CC)n2)c(OC)cc1N1CCC(N2CCN(C)CC2)CC1 [Compound I-115]
50 to 500 | 50 to 500 | 50 to 500 | ≤ 50 | 50 to 500 | ≤ 50 |  |  |  |  |  |  | C=Cc1cc(Nc2ncc(Cl)c(Nc3ccc4nccnc4c3N(C3CC3)S(C)(=O)=O)n2)c(OC(F)(F)F)cc1N1CCC(N2CCN(C)CC2)CC1 [Compound I-304]
 |  |  |  |  |  | 50 to 500 | 50 to 500 | 50 to 500 | ≤ 50 | 50 to 500 | 50 to 500 | COc1cc(N2CCC(N3CCN(C)CC3)CC2)ccc1Nc1ncc(Cl)c(Nc2ccc3nccnc3c2N(C)S(C)(=O)=O)n1 [Compound I-18]
 |  |  |  |  |  | 50 to 500 | 500 to 2500 | 50 to 500 | 50 to 500 | 50 to 500 | 500 to 2500 | COc1cc(N2CCC(N3CCN(C)CC3)CC2)c(CC2CC2)cc1Nc1ncc(F)c(Nc2ccc3nccnc3c2N(C)S(=O)(=O)C2CC2)n1 [Compound I-251]
 |  |  |  |  |  | 50 to 500 | ≤ 50 | 50 to 500 | ≤ 50 | ≤ 50 | ≤ 50 | COc1cc(N2CCC(N3CCN(C)CC3)CC2)ccc1Nc1ncc(Br)c(Nc2ccc3nccnc3c2N(C)S(=O)(=O)C2CC2)n1 [Compound I-215]
50 to 500 | ≤ 50 | 50 to 500 | ≤ 50 | ≤ 50 | ≤ 50 |  |  |  |  |  |  | COc1cc(N2CCC(N(C)C)C2)c(C)cc1Nc1ncc(Br)c(Nc2ccc3nccnc3c2N(C2CC2)S(C)(=O)=O)n1 (stereo not drawn) [Compound I-312]
 |  |  |  |  |  | ≤ 50 | ≤ 50 | ≤ 50 | ≤ 50 | ≤ 50 | ≤ 50 | COc1cc(N2CCC(N(C)C)CC2)c(C)cc1Nc1ncc(Br)c(Nc2ccc3nccnc3c2N(C)S(C)(=O)=O)n1 [Compound I-13]
 |  |  |  |  |  | 50 to 500 | ≤ 50 | ≤ 50 | ≤ 50 | ≤ 50 | ≤ 50 | CCc1cc(Nc2ncc(Br)c(Nc3ccc4nccnc4c3N(C)S(C)(=O)=O)n2)c(OC)nc1N1CCC(N2CCN(C)CC2)CC1 [Compound I-6]
≤ 50 | ≤ 50 | ≤ 50 | ≤ 50 | ≤ 50 | ≤ 50 |  |  |  |  |  |  | CCc1cnc(Nc2cc(C)c(N3CCC(N4CCN(C)CC4)CC3)cc2OC)nc1Nc1ccc2nccnc2c1N(C)S(C)(=O)=O [Compound I-317]
 |  |  |  |  |  | 50 to 500 | 50 to 500 | ≤ 50 | ≤ 50 | ≤ 50 | ≤ 50 | COc1cc(N2CCC(N3CCN(C)CC3)CC2)ccc1Nc1ncc(C(F)(F)F)c(Nc2ccc3nccnc3c2N(C)S(C)(=O)=O)n1 [Compound I-33]
